Data from US20170274174A1, “SYSTEM AND METHOD FOR ADMINISTERING, MONITORING AND CONTROLLING BIOMIMETIC SLEEP” (THE GENERAL HOSPITAL CORPORATION, priority 2014, published 2017).
Read-outs that look alike come from different tables or passages of the source.

## Cc1cccc([C@H](C)c2cnc[nH]2)c1C [dexmedetomidine]
high-dose: about 0.9 to about 1.1 mcg/kg loading, about 0.80 to about 0.9 mcg/kg/hr maintenance, FIGS. 4A-4B
  EEG spectral dynamics / sleep state induced: only slow-waves being induced
low-dose: about 0.9 to about 1.1 mcg/kg loading, about 0.60 to about 0.7 mcg/kg/hr maintenance, FIGS. 3A-3B
  EEG spectral dynamics / sleep state induced: spindles and slow-waves that can closely resemble stage N2 NREM sleep
